Literature values as cited in PMC9186412, “Rational Framework for the Design of Trp- and Arg-Rich Peptide Antibiotics Against Multidrug-Resistant Bacteria” (Frontiers in Microbiology, 2022).
Where two headings read alike, the source gives them in different places.

What was measured:
[1] = test system: CDC AR isolates; set-up: key: S (green), susceptible; I (blue), intermediate; R (red), resistant; conditions: data provided by the CDC, ref CDC, cited from earlier work
Description: Supplement Table_3.XLSX, sheet "CDC AR isolates profiles" | column: G(-) strains

[2] = test system: CDC AR isolates; set-up: key: S (green), susceptible; I (blue), intermediate; R (red), resistant; conditions: data provided by the CDC, ref CDC, cited from earlier work; remark: listed apart in the source
[3] = Acinetobacter baumannii AB273, CDC AR isolate
[4] = Acinetobacter baumannii AB274, CDC AR isolate
[5] = Acinetobacter baumannii AB275, CDC AR isolate
[6] = Acinetobacter baumannii AB276, CDC AR isolate
[7] = Enterobacter cloacae E62, CDC AR isolate
[8] = Enterobacter cloacae E544, CDC AR isolate
[9] = Enterobacter cloacae E545, CDC AR isolate
[10] = Enterobacter cloacae E546, CDC AR isolate
[11] = Enterococcus faecium EF500, CDC AR isolate
[12] = Enterococcus faecium EF671, CDC AR isolate
[13] = Enterococcus faecium EF672, CDC AR isolate
[14] = Escherichia coli EC541, CDC AR isolate
[15] = Escherichia coli EC543, CDC AR isolate
[16] = Escherichia coli EC544, CDC AR isolate
[17] = Escherichia coli EC549, CDC AR isolate
[18] = Klebsiella pneumoniae KP542, CDC AR isolate
[19] = Klebsiella pneumoniae KP548, CDC AR isolate
[20] = Klebsiella pneumoniae KP550, CDC AR isolate
[21] = Klebsiella pneumoniae KP552, CDC AR isolate
[22] = Enterococcus faecium EF673, CDC AR isolate
[23] = Staphylococcus aureus SA462, CDC AR isolate
[24] = Staphylococcus aureus SA463, CDC AR isolate
[25] = Staphylococcus aureus SA561, CDC AR isolate
[26] = Staphylococcus aureus SA461, CDC AR isolate
[27] = Pseudomonas aeruginosa PA229, CDC AR isolate
[28] = Pseudomonas aeruginosa PA230, CDC AR isolate
[29] = Pseudomonas aeruginosa PA231, CDC AR isolate
[30] = Pseudomonas aeruginosa PA232, CDC AR isolate
[31] = Pseudomonas aeruginosa PA239, CDC AR isolate

SMILES | Antibiotic susceptibility profile [1, 7] | Antibiotic susceptibility profile [1, 8] | Antibiotic susceptibility profile [1, 9] | Antibiotic susceptibility profile [1, 10] | Antibiotic susceptibility profile [1, 11] | Antibiotic susceptibility profile [1, 12] | Antibiotic susceptibility profile [1, 13] | Antibiotic susceptibility profile [1, 14] | Antibiotic susceptibility profile [1, 15] | Antibiotic susceptibility profile [1, 16] | Antibiotic susceptibility profile [1, 17] | Antibiotic susceptibility profile [1, 18] | Antibiotic susceptibility profile [1, 19] | Antibiotic susceptibility profile [1, 20] | Antibiotic susceptibility profile [1, 21] | Antibiotic susceptibility profile [2, 22] | Antibiotic susceptibility profile [1, 23] | Antibiotic susceptibility profile [1, 24] | Antibiotic susceptibility profile [1, 25] | Antibiotic susceptibility profile [2, 26] | other results
CC1(C)S[C@@H]2[C@H](NC(=O)[C@H](N)c3ccccc3)C(=O)N2[C@H]1C(=O)O [Ampicillin] | R | R | R | R | R | S | S | R | R | R | R | R | R | R | R | S | – | – | – | – | Antibiotic susceptibility profile [1, 3]: R; Antibiotic susceptibility profile [1, 4]: R; Antibiotic susceptibility profile [1, 5]: R; Antibiotic susceptibility profile [1, 6]: R
CO[C@@]1(NC(=O)Cc2cccs2)C(=O)N2C(C(=O)O)=C(COC(N)=O)CS[C@@H]21 [Cefoxitin] | R | R | R | R | – | – | – | S | R | R | R | R | R | R | R | – | R | R | R | R | –
CCO/N=C(\C(=O)N[C@@H]1C(=O)N2C(C(=O)[O-])=C(Sc3nc(-c4cc[n+](C)cc4)cs3)CS[C@H]12)c1nsc(N)n1 [Ceftaroline] | – | – | – | – | – | – | – | R | R | R | R | – | – | – | – | – | S | S | S | S | –
O=C(N[C@H](CO)[C@H](O)c1ccc([N+](=O)[O-])cc1)C(Cl)Cl [Chloramphenicol] | – | – | – | – | I | R | I | – | – | – | – | – | – | – | – | S | – | – | – | – | –
CCC[C@@H]1C[C@@H](C(=O)N[C@@H]([C@H]2O[C@H](SC)[C@H](O)[C@@H](O)[C@H]2O)[C@H](C)Cl)N(C)C1 [Clindamycin] | – | – | – | – | – | – | – | – | – | – | – | – | – | – | – | – | S | S | S | R | –
CCCCCCCCCC(=O)N[C@@H](Cc1c[nH]c2ccccc12)C(=O)N[C@H](CC(N)=O)C(=O)N[C@@H](CC(=O)O)C(=O)N[C@@H]1C(=O)NCC(=O)N[C@@H](CCCN)C(=O)N[C@@H](CC(=O)O)C(=O)N[C@H](C)C(=O)N[C@@H](CC(=O)O)C(=O)NCC(=O)N[C@H](CO)C(=O)N[C@@H]([C@H](C)CC(=O)O)C(=O)N[C@@H](CC(=O)c2ccccc2N)C(=O)O[C@@H]1C [Daptomycin] | – | – | – | – | S | S | S | – | – | – | – | – | – | – | – | S | – | S | – | S | –
Nc1nc(-n2cc(C(=O)O)c(=O)c3cc(F)c(N4CC(O)C4)c(Cl)c32)c(F)cc1F [Delafloxacin] | – | – | – | – | – | S | S | – | – | – | – | – | – | – | – | S | – | – | – | – | –
C[C@H]1c2cccc(O)c2C(=O)C2=C(O)[C@]3(O)C(=O)C(C(N)=O)=C(O)[C@@H](N(C)C)[C@@H]3[C@@H](O)[C@@H]21 [Doxycycline] | – | – | – | – | I | S | I | – | – | – | – | – | – | – | – | S | S | S | I | S | –
CC[C@H]1OC(=O)[C@H](C)[C@@H](O[C@H]2C[C@@](C)(OC)[C@@H](O)[C@H](C)O2)[C@H](C)[C@@H](O[C@@H]2O[C@H](C)C[C@H](N(C)C)[C@H]2O)[C@](C)(O)C[C@@H](C)C(=O)[C@H](C)[C@@H](O)[C@]1(C)O [Erythromycin] | – | – | – | – | – | – | – | – | – | – | – | – | – | – | – | – | S | S | I | R | –
CNC(C)C1CCC(N)C(OC2C(N)CC(N)C(OC3OCC(C)(O)C(NC)C3O)C2O)O1 (stereo not drawn) [Gentamicin] | S | R | R | S | – | – | – | S | R | R | S | R | S | R | S | – | S | S | S | S | Antibiotic susceptibility profile [1, 3]: R; Antibiotic susceptibility profile [1, 4]: R; Antibiotic susceptibility profile [1, 5]: R; Antibiotic susceptibility profile [1, 6]: R; Antibiotic susceptibility profile [1, 27]: S; Antibiotic susceptibility profile [1, 28]: R; Antibiotic susceptibility profile [1, 29]: R; Antibiotic susceptibility profile [1, 30]: R; Antibiotic susceptibility profile [1, 31]: R
C[C@H]1COc2c(N3CCN(C)CC3)c(F)cc3c(=O)c(C(=O)O)cn1c23 [Levofloxacin] | R | R | S | R | R | S | S | R | R | R | R | R | R | R | R | S | R | S | R | R | Antibiotic susceptibility profile [1, 3]: R; Antibiotic susceptibility profile [1, 4]: R; Antibiotic susceptibility profile [1, 5]: R; Antibiotic susceptibility profile [1, 6]: R; Antibiotic susceptibility profile [1, 27]: R; Antibiotic susceptibility profile [1, 28]: R; Antibiotic susceptibility profile [1, 29]: R; Antibiotic susceptibility profile [1, 30]: R; Antibiotic susceptibility profile [1, 31]: R
CC(=O)NC[C@H]1CN(c2ccc(N3CCOCC3)c(F)c2)C(=O)O1 [Linezolid] | – | – | – | – | S | S | S | – | – | – | – | – | – | – | – | S | S | S | S | S | –
CN(C)c1cc(NC(=O)CNC(C)(C)C)c(O)c2c1C[C@H]1C[C@H]3[C@H](N(C)C)C(O)=C(C(N)=O)C(=O)[C@@]3(O)C(O)=C1C2=O [Tigecycline] | S | R | R | S | – | – | – | S | S | S | S | S | I | S | S | – | – | – | – | – | –
